Patent US10398751B2, “Pharmaceutical compositions of water soluble peptides with poor solubility in isotonic conditions and methods for their use” (STRONGBRIDGE IRELAND LIMITED, priority 2016, dated 2019)
Counter-ions that a name gives are not always drawn.

Experiments:
[1] = tested on: CHO-cells expression cloned human SST-R5; assay: Growth inhibition of CHO cells; type: cell-based
[2] = Peptide content, encapsulation efficiency and residual additives of microspheres; type: physicochemical; settings: Example 7 PLGA 50:50 (7-17 kDa) microspheres
Text: These observations and conclusion are supported by the analysis of the residual HPB concentration in the MS formulations of HPB. Indeed, the analytical data (see below) confirms that the same ratio of HPB:PEP were maintained in the final MS of HPB and therefore verifying the conditions and data of Table 6.
Therefore, unlike the case of HPB, the effect of the DEX on the COR005 surface activity at the injection site seems to be negligible. The effect for the DEX is addressed in the SEM analysis section below.
Tables 19 and 20 summarize the peptide content and encapsulation efficiency (EE) of bulk samples of microspheres, measured by HPLC.
PLGA microspheres containing veldoreotide acetate were prepared. 500 mg of PLGA 50:50 (7-17 kDa) was dissolved in 5 mL dichloromethane oil phase). An aqueous solution contacting 50 mg of veldoreotide acetate in 1 ml of DDW prepared separately (inner aqueous phase). The first aqueous phase was emulsified into the oil phase (containing PLGA), using a high-speed homogenizer (Polytron) at 2-8° C. using different speeds and time durations to form water in oil primary emulsion. The primary emulsion was added (drop wise) into the 100 ml of external aqueous phase containing 1% PVA solution in PBS to form secondary emulsion. […]

human lymphocytes = assay: Human peripheral blood lymphocytes proliferation assays; type: cell-based
[3] = Circulatory half-life after subcutaneous administration to rats; settings: rat, in vivo, sc
Text: The unique pharmacokinetic profile of veldoreotide acetate as evaluated in animals is consistent with its metabolic stability as evaluated in-vitro against various enzymes and tissue homogenates. […] This prolonged half-life is due to its unique “flip-flop” kinetics, a result of its slow release from the injection site.

encapsulation efficiency (EE) % [2]: 77% | final drug load in microspheres [2]: 6 weight % | half-life [3]: ~3 h
Compound: C[C@@H](O)[C@@H]1NC(=O)[C@H](CCCCN)NC(=O)[C@@H](Cc2c[nH]c3ccccc23)NC(=O)[C@H](Cc2c[nH]c3ccccc23)NC(=O)[C@H](Cc2ccccc2)NC(=O)CCCNC(=O)CCCN(CC(N)=O)C(=O)[C@H](Cc2ccccc2)NC1=O [Veldoreotide Acetate, Cyclo(-γ-aminobutyryl-L-phenylalanyl-L-tryptophanyl-D-tryptophanyl-L-lysyl-L-threonyl-L-phenylalanyl-N-carbamoylmethyl-γ-aminobutyryl), acetate salt]
growth inhibition [1]: significant growth inhibition | mitogenicity for human lymphocytes (human lymphocytes): non-mitogenic
